According to ChEMBL document CHEMBL5137034, “Chemical space exploration around indolylarylsulfone scaffold led to a novel class of highly active HIV-1 NNRTIs with spiro structural features” (Eur J Med Chem, 2022):

What was measured:
[1] = test system: Human immunodeficiency virus 1; assay: Antiviral activity against HIV-1 harboring F227L/V106A double mutant infected in human MT4 cells assessed as reduction in virus induced cytotoxicity incubated for 5 to 7 days by MTT assay; type: functional, organism-based; conditions: Human immunodeficiency virus 1, MT4
[2] = test system: Human immunodeficiency virus 1; assay: Antiviral activity against wild type HIV-1 3B infected in human MT4 cells assessed as reduction in virus induced cytotoxicity incubated for 5 to 7 days by MTT assay; type: functional, organism-based; conditions: Human immunodeficiency virus 1, 3B
[3] = Cytotoxicity against human MT4 cells assessed as reduction in cell viability incubated for 5 to 7 days by MTT assay; type: toxicity, cell-based; conditions: time 5-7 day
[4] = Selectivity index, ratio of CC50 for cytotoxicity against human MT4 cells to EC50 for antiviral activity against wildtype HIV-1 3B infected in human MT4 cells; type: toxicity, cell-based; conditions: read-out: Ratio CC50/EC50
[5] = test system: Human immunodeficiency virus 1; assay: Antiviral activity against HIV-1 harboring L100I mutant infected in human MT4 cells assessed as reduction in virus induced cytotoxicity incubated for 5 to 7 days by MTT assay; type: functional, organism-based; conditions: Human immunodeficiency virus 1, MT4
[6] = test system: Human immunodeficiency virus 1; assay: Antiviral activity against HIV-1 harboring K103N mutant infected in human MT4 cells assessed as reduction in virus induced cytotoxicity incubated for 5 to 7 days by MTT assay; type: functional, organism-based; conditions: Human immunodeficiency virus 1, MT4
[7] = test system: Human immunodeficiency virus 1; assay: Antiviral activity against HIV-1 harboring Y181C mutant infected in human MT4 cells assessed as reduction in virus induced cytotoxicity incubated for 5 to 7 days by MTT assay; type: functional, organism-based; conditions: Human immunodeficiency virus 1, MT4
[8] = test system: Human immunodeficiency virus 1; assay: Antiviral activity against HIV-1 harboring Y188L mutant infected in human MT4 cells assessed as reduction in virus induced cytotoxicity incubated for 5 to 7 days by MTT assay; type: functional, organism-based; conditions: Human immunodeficiency virus 1, MT4
[9] = test system: Human immunodeficiency virus 1; assay: Antiviral activity against HIV-1 harboring E138K mutant infected in human MT4 cells assessed as reduction in virus induced cytotoxicity incubated for 5 to 7 days by MTT assay; type: functional, organism-based; conditions: Human immunodeficiency virus 1, MT4
[10] = test system: Human immunodeficiency virus 1; assay: Antiviral activity against HIV-1 RES056 infected in human MT4 cells assessed as reduction in virus induced cytotoxicity incubated for 5 to 7 days by MTT assay; type: functional, organism-based; conditions: Human immunodeficiency virus 1, RES056, MT4
[11] = target: Human immunodeficiency virus type 1 reverse transcriptase (Human immunodeficiency virus 1, UniProt Q72547); assay: Inhibition of wild type HIV-1 reverse transcriptase assessed as reduction of biotin-dUTP incorporation into […] using ABTS as substrate incubated for 1 hrs by ELISA analysis
[12] = test system: Human immunodeficiency virus 1; assay: Potency index, ratio of Nevirapine EC50 to test compound EC50 for antiviral activity against wild type HIV-1 3B infected in human MT4 cells assessed as reduction in virus induced cytotoxicity incubated for 5 to 7 days by MTT assay; type: functional; conditions: time 5-7 day
[13] = test system: Human immunodeficiency virus 1; assay: Potency index, ratio of Zidovudine EC50 to test compound EC50 for antiviral activity against wild type HIV-1 3B infected in human MT4 cells assessed as reduction in virus induced cytotoxicity incubated for 5 to 7 days by MTT assay; type: functional; conditions: time 5-7 day
[14] = test system: Human immunodeficiency virus 1; assay: Potency index, ratio of 5-chloro-3-(m-tolylsulfonyl)-1H-indole-2-carboxamide EC50 to test compound EC50 for antiviral activity against HIV-1 harboring E138K mutant infected in human MT4 cells assessed as reduction in virus induced cytotoxicity incubated for 5 to 7 days by MTT assay; type: functional; conditions: time 5-7 day

SMILES	EC50 [1] [nM]	EC50 [2] [nM]	CC50 [3] [nM]	selectivity ratio [4]	EC50 [5] [nM]	EC50 [6] [nM]	EC50 [7] [nM]	EC50 [8] [nM]	EC50 [9] [nM]	EC50 [10] [nM]	IC50 [11] [nM]	Ratio EC50 [12]	Ratio EC50 [13]	Ratio EC50 [14]
Cc1cc(C)cc(S(=O)(=O)c2c(C(=O)NC3CC4(CCN(S(C)(=O)=O)C4)C3)[nH]c3ccc(Cl)cc23)c1 (centres undefined)	600	12	205000	16500	110	330	330	1930	69	> 205000				
Cc1cn([C@H]2C[C@H](N=[N+]=[N-])[C@@H](CO)O2)c(=O)[nH]c1=O [ZIDOVUDINE]	4	21	> 7480	> 352	5		5	4	7	10				
Cc1cc(C#N)cc(C)c1Oc1nc(Nc2ccc(C#N)cc2)nc(N)c1Br [ETRAVIRINE]	16		> 4590	> 1570	9			15		35				
Cc1cc(C)cc(S(=O)(=O)c2c(C(=O)NC3CC4(CCN(C(=O)OC(C)(C)C)C4)C3)[nH]c3ccc(Cl)cc23)c1 (centres undefined)		120	171000	1470										
Cc1cc(C)cc(S(=O)(=O)c2c(C(N)=O)[nH]c3ccc(Cl)cc23)c1	47	4.1		2160	15	17	39	1100	900	1800	15			
Cc1cc(C)cc(S(=O)(=O)c2c(C(=O)NC3CC4(CCN(C(=O)OC(C)(C)C)CC4)C3)[nH]c3ccc(Cl)cc23)c1		190	133000	685										
Cc1cc(C)cc(S(=O)(=O)c2c(C(=O)NC3CC4(CCN(Cc5n[nH]c(=O)n5C)C4)C3)[nH]c3ccc(Cl)cc23)c1 (centres undefined)	270	9.9	> 214000	> 21600	58	140	210	1460	45	133000		16	2	
Cc1cc(C)cc(S(=O)(=O)c2c(C(=O)NC3CC4(CCNC4)C3)[nH]c3ccc(Cl)cc23)c1 (centres undefined)		38	25200	664										
Cc1cc(C)cc(S(=O)(=O)c2c(C(=O)NC3CC4(CCN(CC(N)=O)CC4)C3)[nH]c3ccc(Cl)cc23)c1	480	9.8	3610	367	180	150	850	1290	200	> 3610				
O=C1Nc2ccc(Cl)cc2[C@@](C#CC2CC2)(C(F)(F)F)O1 [EFAVIRENZ]		3.2	> 6330			97		89	[…]	105				
Cc1cc(C)cc(S(=O)(=O)c2c(C(=O)NC3CC4(C3)CN(S(C)(=O)=O)C4)[nH]c3ccc(Cl)cc23)c1	410	11	> 233000	> 20900	120	210	470	1760	110	≥ 12800	120			
Cc1cc(C)cc(S(=O)(=O)c2c(C(=O)NC3CC4(CCN(S(C)(=O)=O)CC4)C3)[nH]c3ccc(Cl)cc23)c1	1290	21	> 222000	> 10300	250	440	970	> 191000	100	> 222000				
Cc1cc(C)cc(S(=O)(=O)c2c(C(=O)NC3CC4(CCNCC4)C3)[nH]c3ccc(Cl)cc23)c1		49	24200	493										
Cc1cc(C)cc(S(=O)(=O)c2c(C(=O)NC3CC4(CCN(CC(N)=O)C4)C3)[nH]c3ccc(Cl)cc23)c1 (centres undefined)	420	11	3700	328	130	190	420	1420	72	> 3700	130			
Cc1ccnc2c1NC(=O)c1cccnc1N2C1CC1 [NEVIRAPINE]	3540		> 15000			3550	3780	4420	158	2220				
Cc1cc(C)cc(S(=O)(=O)c2c(C(=O)NC3CC4(CNC4)C3)[nH]c3ccc(Cl)cc23)c1		41	28600	676										
Cc1cc(C)cc(S(=O)(=O)c2c(C(=O)NC3CC4(CCN(Cc5n[nH]c(=O)n5C)CC4)C3)[nH]c3ccc(Cl)cc23)c1	1420	22	178000	8350	270	570	940	8070	170	> 178000				
Cc1cc(C)cc(S(=O)(=O)c2c(C(=O)NC3CC4(C3)CN(CC(N)=O)C4)[nH]c3ccc(Cl)cc23)c1	500	11	6080	526	100	140	390	1280	74	≥ 5770				
Cc1cc(C)cc(S(=O)(=O)c2c(C(=O)NC3CC4(C3)CN(C(=O)OC(C)(C)C)C4)[nH]c3ccc(Cl)cc23)c1		70	> 224000	> 3220										
Cc1cc(C)cc(S(=O)(=O)c2c(C(=O)NC3CC4(C3)CN(Cc3n[nH]c(=O)n3C)C4)[nH]c3ccc(Cl)cc23)c1	230	5.3	65600	12400	47	56	250	560	40	7450	170	30	4	23
